{"source": "ChEMBL document CHEMBL1201862", "about": "“PubChem BioAssay data set” (2004)", "assay_in_all_cases": "NCI-60 cell line screen, 48 h", "key": {"SK-MEL-5": {"system": "SK-MEL-5"}, "COLO 205": {"system": "COLO 205"}, "OVCAR-5": {"system": "OVCAR-5"}, "A549": {"system": "A549"}, "CCRF-CEM": {"system": "CCRF-CEM"}, "UACC-62": {"system": "UACC-62"}, "DU-145": {"system": "DU-145"}, "PC-3": {"system": "PC-3"}, "Malme-3M": {"system": "Malme-3M"}, "IGROV-1": {"system": "IGROV-1"}, "NCI-H460": {"system": "NCI-H460"}, "A498": {"system": "A498"}, "HCT-116": {"system": "HCT-116"}, "MDA-MB-231": {"system": "MDA-MB-231"}, "RPMI-8226": {"system": "RPMI-8226"}, "SK-MEL-2": {"system": "SK-MEL-2"}, "Hs-578T": {"system": "Hs-578T"}, "HCT-15": {"system": "HCT-15"}, "SNB-75": {"system": "SNB-75"}, "RXF 393": {"system": "RXF 393"}, "SF-539": {"system": "SF-539"}, "SR": {"system": "SR"}, "NCI/ADR-RES": {"system": "NCI/ADR-RES"}, "UACC-257": {"system": "UACC-257"}, "SW-620": {"system": "SW-620"}, "TK-10": {"system": "TK-10"}, "BT-549": {"system": "BT-549"}, "SN12C": {"system": "SN12C"}, "CAKI-1": {"system": "CAKI-1"}, "HOP-92": {"system": "HOP-92"}, "KM12": {"system": "KM12"}, "SNB-19": {"system": "SNB-19"}, "MOLT-4": {"system": "MOLT-4"}, "HT-29": {"system": "HT-29"}, "U-251": {"system": "U-251"}, "HL-60": {"system": "HL-60"}, "HCC 2998": {"system": "HCC 2998"}, "SK-OV-3": {"system": "SK-OV-3"}, "786-0": {"system": "786-0"}, "OVCAR-8": {"system": "OVCAR-8"}, "ACHN": {"system": "ACHN"}, "SK-MEL-28": {"system": "SK-MEL-28"}, "MCF7": {"system": "MCF7"}, "M14": {"system": "M14"}, "MDA-N": {"system": "MDA-N"}, "T47D": {"system": "T47D"}, "OVCAR-3": {"system": "OVCAR-3"}, "SF-268": {"system": "SF-268"}, "SF-295": {"system": "SF-295"}, "NCI-H522": {"system": "NCI-H522"}, "EKVX": {"system": "EKVX"}, "MDA-MB-435": {"system": "MDA-MB-435"}, "K562": {"system": "K562"}, "LOX IMVI": {"system": "LOX IMVI"}, "NCI-H226": {"system": "NCI-H226"}, "OVCAR-4": {"system": "OVCAR-4"}}, "note": "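The compound was tested at five concentrations on cells cultured in 96-well plates, with a 48-hour exposure period. GI50 = concentration required for 50% inhibition of growth.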 The source made the active and inactive calls. No stated cut-off is given here; in the data, active = GI50 up to about 1.1 µM and inactive = higher.", "data": [{"smiles": "C=C(C)[C@H]1C[C@@H]2O[C@@](O)(/C(C)=C\\C(=O)/C=C(/C)C[C@H]3OC(=O)[C@@]24O[C@H]34)[C@@H]1O", "values": [{"measurement": "GI50", "setting": "SK-MEL-5", "result": "> 100 µM (inactive)"}, {"measurement": "GI50", "setting": "COLO 205", "result": "> 100 µM (inactive)"}, {"measurement": "GI50", "setting": "OVCAR-5", "result": "> 100 µM (inactive)"}, {"measurement": "GI50", "setting": "A549", "result": "> 100 µM (inactive)"}, {"measurement": "GI50", "setting": "CCRF-CEM", "result": "> 100 µM (inactive)"}, {"measurement": "GI50", "setting": "UACC-62", "result": "> 100 µM (inactive)"}, {"measurement": "GI50", "setting": "DU-145", "result": "> 100 µM (inactive)"}, {"measurement": "GI50", "setting": "PC-3", "result": "> 100 µM (inactive)"}, {"measurement": "GI50", "setting": "Malme-3M", "result": "> 100 µM (inactive)"}, {"measurement": "GI50", "setting": "IGROV-1", "result": "> 100 µM (inactive)"}, {"measurement": "GI50", "setting": "NCI-H460", "result": "> 100 µM (inactive)"}, {"measurement": "GI50", "setting": "A498", "result": "> 100 µM (inactive)"}, {"measurement": "GI50", "setting": "HCT-116", "result": "> 100 µM (inactive)"}, {"measurement": "GI50", "setting": "MDA-MB-231", "result": "> 100 µM (inactive)"}, {"measurement": "GI50", "setting": "RPMI-8226", "result": "> 100 µM (inactive)"}, {"measurement": "GI50", "setting": "SK-MEL-2", "result": "> 100 µM (inactive)"}, {"measurement": "GI50", "setting": "Hs-578T", "result": "> 100 µM (inactive)"}, {"measurement": "GI50", "setting": "HCT-15", "result": "> 100", "unit": "µM"}, {"measurement": "GI50", "setting": "SNB-75", "result": "> 100 µM (inactive)"}, {"measurement": "GI50", "setting": "RXF 393", "result": "25.7 µM (inactive)"}, {"measurement": "GI50", "setting": "SF-539", "result": "> 100 µM (inactive)"}, {"measurement": "GI50", "setting": "SR", "result": "47.4 µM (inactive)"}, {"measurement": "GI50", "setting": "NCI/ADR-RES", "result": "> 100 µM (inactive)"}, {"measurement": "GI50", "setting": "UACC-257", "result": "> 100 µM (inactive)"}, {"measurement": "GI50", "setting": "SW-620", "result": "> 100 µM (inactive)"}, {"measurement": "GI50", "setting": "TK-10", "result": "> 100 µM (inactive)"}, {"measurement": "GI50", "setting": "BT-549", "result": "> 100 µM (inactive)"}, {"measurement": "GI50", "setting": "SN12C", "result": "> 100 µM (inactive)"}, {"measurement": "GI50", "setting": "CAKI-1", "result": "> 100 µM (inactive)"}, {"measurement": "GI50", "setting": "HOP-92", "result": "> 100 µM (inactive)"}, {"measurement": "GI50", "setting": "KM12", "result": "> 100 µM (inactive)"}, {"measurement": "GI50", "setting": "SNB-19", "result": "> 100 µM (inactive)"}, {"measurement": "GI50", "setting": "MOLT-4", "result": "> 100 µM (inactive)"}, {"measurement": "GI50", "setting": "HT-29", "result": "> 100 µM (inactive)"}, {"measurement": "GI50", "setting": "U-251", "result": "> 100 µM (inactive)"}, {"measurement": "GI50", "setting": "HL-60", "result": "> 100 µM (inactive)"}, {"measurement": "GI50", "setting": "HCC 2998", "result": "> 100 µM (inactive)"}, {"measurement": "GI50", "setting": "SK-OV-3", "result": "> 100 µM (inactive)"}, {"measurement": "GI50", "setting": "786-0", "result": "> 100 µM (inactive)"}, {"measurement": "GI50", "setting": "OVCAR-8", "result": "> 100 µM (inactive)"}, {"measurement": "GI50", "setting": "ACHN", "result": "> 100 µM (inactive)"}, {"measurement": "GI50", "setting": "SK-MEL-28", "result": "> 100 µM (inactive)"}, {"measurement": "GI50", "setting": "MCF7", "result": "> 100 µM (inactive)"}, {"measurement": "GI50", "setting": "M14", "result": "> 100 µM (inactive)"}, {"measurement": "GI50", "setting": "MDA-N", "result": "> 100 µM (inactive)"}, {"measurement": "GI50", "setting": "T47D", "result": "> 100 µM (inactive)"}, {"measurement": "GI50", "setting": "OVCAR-3", "result": "> 100 µM (inactive)"}, {"measurement": "GI50", "setting": "SF-268", "result": "> 100 µM (inactive)"}, {"measurement": "GI50", "setting": "SF-295", "result": "> 100 µM (inactive)"}, {"measurement": "GI50", "setting": "NCI-H522", "result": "> 100 µM (inactive)"}, {"measurement": "GI50", "setting": "EKVX", "result": "> 100 µM (inactive)"}, {"measurement": "GI50", "setting": "MDA-MB-435", "result": "> 100 µM (inactive)"}, {"measurement": "GI50", "setting": "K562", "result": "> 100 µM (inactive)"}, {"measurement": "GI50", "setting": "LOX IMVI", "result": "> 100 µM (inactive)"}, {"measurement": "GI50", "setting": "NCI-H226", "result": "> 100 µM (inactive)"}, {"measurement": "GI50", "setting": "OVCAR-4", "result": "> 100 µM (inactive)"}]}]}
